These results are taken from US8575091B1, “Amylin analogues and pharmaceutical compositions thereof” (Novo Nordisk A/S, priority 2012, dated 2013).

Usually EC50 stands for the concentration that produces a half-maximal response. One may read the IC50 as the point on the concentration scale where inhibition reaches its midpoint.

Assay [1] deals with T1, human amylin receptor (amylin 3(a) receptor: human calcitonin receptor + RAMP-3) (Homo sapiens, UniProt O60896+P30988).
T1 construct: expressed in transfected cells
T1 sequence (P30988 25-474): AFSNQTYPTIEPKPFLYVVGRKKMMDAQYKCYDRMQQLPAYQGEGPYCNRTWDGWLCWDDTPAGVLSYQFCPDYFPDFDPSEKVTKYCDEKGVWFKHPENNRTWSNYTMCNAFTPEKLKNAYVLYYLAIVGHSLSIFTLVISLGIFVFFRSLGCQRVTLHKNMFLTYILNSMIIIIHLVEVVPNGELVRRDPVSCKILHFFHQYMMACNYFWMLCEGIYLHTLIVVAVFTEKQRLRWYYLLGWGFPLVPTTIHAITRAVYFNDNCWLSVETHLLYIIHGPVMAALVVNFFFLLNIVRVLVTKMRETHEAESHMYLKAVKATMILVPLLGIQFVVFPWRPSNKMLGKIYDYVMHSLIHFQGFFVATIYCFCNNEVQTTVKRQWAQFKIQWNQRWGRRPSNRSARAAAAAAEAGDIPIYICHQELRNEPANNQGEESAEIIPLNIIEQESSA
T1 sequence (O60896 24-148 partner): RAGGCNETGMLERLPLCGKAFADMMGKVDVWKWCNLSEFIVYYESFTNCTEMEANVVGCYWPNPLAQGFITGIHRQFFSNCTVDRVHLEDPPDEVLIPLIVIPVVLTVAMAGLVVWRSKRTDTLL
Nature of the assay: Assay (II)a functional assay, human amylin receptor (CRE luciferase, BHK cells). The format is cell-based.

The target in assay [2] is T2, human calcitonin receptor (Homo sapiens, UniProt P30988).
T2 construct: expressed in transfected cells
T2 sequence (P30988 25-474): T1 sequence (P30988 25-474)
As to the kind of experiment: Assay (VII) binding to the human calcitonin receptor (SPA, 125I-Calcitonin).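 Also: cell membranes coupled to SPA beads, competitive displacement read by scintillation counting, IC50 derived from a one-site competition fit as a measure of receptor affinity.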 To be noted: read-out: hCTR bind IC50.
Protocol: Membranes were prepared in the following way; the cells were rinsed with PBS and incubated with Versene for approximately 5 min before harvesting. The cells were flushed with PBS and the cell-suspension was centrifuged for 5 min at 1000 rpm. […] The resulting pellet was resuspended in buffer 2 and protein concentration was measured (BCA protein Assay, Pierce). The homogenate was kept cold during the whole procedure. The membranes were kept at −80° C. until use. Assay was performed in a 384 well Optiplate (PerkinElmer) in a total volume of 40 ul. Membranes were mixed with SPA beads. Final concentration of membranes 35 ng/μL final and Final concentration of SPA beads was 0.05 mg/well. Test-compounds were dissolved in DMSO and further diluted in assay buffer (50 mM Hepes, pH 7.4, 1 mM CaCl2, 5 mM MgCl2, 0.1% OA and 0.02% Tween20). […] Samples were analyzed on TopCounter™ (Packard). The IC50 was calculated using (one site binding competition analysis) GraphPad Prism5 as a measure of receptor affinity.

For the next assay, the system named is Sprague-Dawley rats. As to the kind of experiment: Assay (XI) single subcutaneous administration, food intake monitored for 48 hours in rats. In kind it is in vivo, rat. Conditions: single subcutaneous 30 nmol/kg. Here is the method:
Assay (XI)—Effect from Single Subcutaneous Administration of Analogue on […] in Rats
Male Sprague-Dawley rats (Taconic Europe, ˜250 g at test date) were acclimatized to reversed day light cycle (lights on from 10 PM to 10 AM) and single housing in online food intake monitoring system (Ellegaard MBRose, Denmark) prior to study start. Rats were divided in groups of five and subcutaneously dosed with test compound (30 nmol/kg) and food intake was monitored for 48 hours hereafter. Data are illustrated in graphs as mean±SEM.

Assay [3] deals with T2, human calcitonin receptor. Nature of the assay: Assay (II)a functional assay, human calcitonin receptor (CRE luciferase, BHK cells).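 Also: luminescence from a CRE-driven luciferase reporter, read by single photon counting after cells were exposed to test samples for 3 h at 37 °C under 5% CO2.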 In kind it is cell-based. Conditions: read-out: hCTR funct. EC50.
Protocol: Assay (II)—Functional Assays
Consequently, transcription is activated by promoters containing multiple copies of the cAMP response element (CRE).
The cell line was further transfected with RAMP-3, using standard methods.
After incubation overnight at 37° C. and 5% CO2, the growth medium was replaced by 50 μl/well assay medium (DMEM (without phenol red), Glutamax™, 10% FBS, and 10 mM Hepes, pH 7.4). Further, 50 μl/well of standard or sample in assay buffer were added. After 3 hours incubation at 37° C. and 5% CO2, the assay medium with standard or sample were removed and replaced by 100 μl/well PBS. Further, 100 μl/well LucLite™ was added. The plates were sealed and incubated at room temperature for 30 minutes. Finally, luminescence was measured on a TopCounter (Packard) in SPC (single photon counting) mode.
The next assay deals with T3, human amylin receptor (Homo sapiens, UniProt O60896+P30988).
T3 construct: expressed in transfected cells
T3 sequence (P30988 25-474): T1 sequence (P30988 25-474)
T3 sequence (O60896 24-148 partner): T1 sequence (O60896 24-148 partner)
As to the kind of experiment: Assay (V) binding to the human amylin receptor (SPA, 125I-rat amylin). In short, it runs like this:
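SPA competition binding on membranes from Amylin 3(a)/CRE-luc cells, 35 ng/μL membranes with 0.05 mg/well beads. Buffer 50 mM Hepes pH 7.4, 1 mM CaCl2, 5 mM MgCl2, 0.1% OA, 0.02% Tween20. IC50 from one-site competition fit as affinity measure.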

The test system of another assay is Wistar rats. Nature of the assay: Assay (XII) single subcutaneous administration, plasma calcium in rats. Conditions: for Plasma calcium red (%) 0-12 h: single s.c., maximal reduction 0-12 h, compared to vehicle; for suppression of plasma calcium level relative to vehicle: single subcutaneous, over 24 hours. The format is in vivo, rat. The protocol: Assay (XII)—Effect from Single Subcutaneous Administration of Analogue on Plasma Calcium in Rats
Male Wistar rats (Taconic Europe, ˜250 g at test date) were acclimatized to handling prior to the study. Rats were divided in groups of five and subcutaneously dosed with test compound at time=0. At time T=−15 min; 1 h, 2 h, 4 h, 7 h, 12 h, and 24 h a blood sample was obtained and heparin stabilized plasma was analysed for total calcium (Cobas, Hitachi). Data are illustrated in graphs as mean±SEM.

“Also recorded” adds a separate entry of the source. Numbered stars: 1 amine (or outer) side, 2 acyl side, 3 side chain; on linkers, the order of the positions; unused ones are H or OH. Bridge positions count the residues as written; N and C are the ends. Side chains are listed from the residue outwards. Peptide text beside a SMILES is read from it. * marks the point of attachment. C20 diacid = O=C(O)CCCCCCCCCCCCCCCCCCC(=O)*; γGlu = O=C(O)[C@H](CCC(=O)[*:2])N[*:1]

Regarding `CC[C@H](C)[C@H](NC(=O)[C@H](C)NC(=O)CNC(=O)[C@H](Cc1ccccc1)NC(=O)[C@H](CC(N)=O)NC(=O)[C@@H]1CCCN1C(=O)[C@H](CO)NC(=O)[C@H](CO)NC(=O)[C@H](Cc1c[nH]cn1)NC(=O)[C@H](CCCNC(=N)N)NC(=O)[C@H](CC(C)C)NC(=O)[C@H](Cc1ccccc1)NC(=O)[C@H](CCC(=O)O)NC(=O)[C@H](C)NC(=O)[C@H](CC(C)C)NC(=O)[C@H](CCCNC(=N)N)NC(=O)[C@H](CCC(N)=O)NC(=O)[C@@H](NC(=O)[C@H](C)NC(=O)[C@@H]1CSSC[C@H](NC(=O)[C@@H](N)CCCCNC(=O)CC[C@H](NC(=O)CCCCCCCCCCCCCCCCCCC(=O)O)C(=O)O)C(=O)N[C@@H](CC(N)=O)C(=O)N[C@@H]([C@@H](C)O)C(=O)N[C@@H](C)C(=O)N[C@@H]([C@@H](C)O)C(=O)N1)[C@@H](C)O)C(=O)N1CCC[C@H]1C(=O)N[C@@H](CO)C(=O)N[C@@H](CO)C(=O)N[C@H](C(=O)N[C@@H](CC(N)=O)C(=O)N[C@H](C(=O)NCC(=O)N1CCC[C@H]1C(=O)N[C@@H](CCCNC(=N)N)C(=O)N[C@H](C(=O)N[C@@H](Cc1ccc(O)cc1)C(N)=O)[C@@H](C)O)C(C)C)[C@@H](C)O` [Example 117] (H-K([γGlu-C20 diacid])CNTATCATQRLAEFLRHSSPNFGAIPSSTNVGPRTY-NH2; disulfide 2-7), the “Ratio hCT/hAmylin funct.” value in assay [1] (Table 6, human functional selectivity (hCTR EC50 / hAmylin-R EC50)) worked out at 17.0; in assay [1] (Table 6a, human functional selectivity (hCTR EC50 / hAmylin-R EC50), at least 5), 17.0; in assay [1] (Table 6i, hCTR funct. EC50 / hAmylin-R funct. EC50), 17.0; in assay [1] (Table 6j, hCTR funct. EC50 / hAmylin-R funct. EC50) it was 17.0; in assay [1] (Table 6k, hCTR funct. EC50 / hAmylin-R funct. EC50), 17.0. Moreover, the EC50 in assay [1] (functional assay, human amylin receptor, read-out: hAmylin-R funct. EC50) came to 0.376 nM; in assay [3], 6.38 nM. Also, the IC50 in assay [2] turned out to be 6.3 nM; at human amylin receptor (human amylin receptor membranes, SPA, read-out: hAmylin-R bind IC50), 0.163 nM. Also, the “food intake monitored over 48 hours versus vehicle” value in the assay with Sprague-Dawley rats is recorded as “reduces food intake in rats”. Further, in the assay on Wistar rats (30 nmol/kg), the “Plasma calcium red (%) 0-12 h” value came to 9%. For the same compound, the “suppression of plasma calcium level relative to vehicle” value in the assay with Wistar rats (30 nmol/kg) is given as “None of the example compounds at 30 nmol/kg trigger a notable suppression of the calcium level”.
For `CC[C@H](C)[C@H](NC(=O)[C@H](C)NC(=O)CNC(=O)[C@H](Cc1ccccc1)NC(=O)[C@H](CC(N)=O)NC(=O)[C@@H]1CCCN1C(=O)[C@H](CO)NC(=O)[C@H](CO)NC(=O)[C@H](Cc1c[nH]cn1)NC(=O)[C@H](CCCNC(=N)N)NC(=O)[C@H](CC(C)C)NC(=O)[C@H](Cc1ccccc1)NC(=O)[C@H](CCC(=O)O)NC(=O)[C@H](C)NC(=O)[C@H](CC(C)C)NC(=O)[C@H](CCCNC(=N)N)NC(=O)[C@H](CCC(N)=O)NC(=O)[C@@H](NC(=O)[C@H](C)NC(=O)[C@@H]1CSSC[C@H](NC(=O)[C@@H](N)CCCCNC(=O)CC[C@H](NC(=O)CC[C@H](NC(=O)CCCCCCCCCCCCCCCCCCC(=O)O)C(=O)O)C(=O)O)C(=O)N[C@@H](CC(N)=O)C(=O)N[C@@H]([C@@H](C)O)C(=O)N[C@@H](C)C(=O)N[C@@H]([C@@H](C)O)C(=O)N1)[C@@H](C)O)C(=O)N1CCC[C@H]1C(=O)N[C@@H](CO)C(=O)N[C@@H](CO)C(=O)N[C@H](C(=O)N[C@@H](CC(N)=O)C(=O)N[C@H](C(=O)NCC(=O)N[C@@H](CO)C(=O)N[C@@H](CCCNC(=N)N)C(=O)N[C@H](C(=O)N[C@@H](Cc1ccc(O)cc1)C(N)=O)[C@@H](C)O)C(C)C)[C@@H](C)O` [Example 89] (H-K([γGlu-γGlu-C20 diacid])CNTATCATQRLAEFLRHSSPNFGAIPSSTNVGSRTY-NH2; disulfide 2-7 (inferred); N-terminus and C-terminus assumed), the “food intake monitored over 48 hours versus vehicle” value in the assay with Sprague-Dawley rats was “reduce food intake in rats”. Moreover, the “Ratio hCT/hAmylin binding” value was 28.0 on human amylin receptor (Table 7b, human calcitonin receptor binding IC50 divided by human amylin receptor binding IC50); 28.0 at human amylin receptor (Table 7c, human calcitonin receptor binding IC50 divided by human amylin receptor binding IC50); 28.0 at human amylin receptor (human binding ratio, included for comparison). In the assay on Wistar rats (30 nmol/kg), the “Plasma calcium red (%) 0-12 h” value was 7%. Further, the “suppression of plasma calcium level relative to vehicle” value with Wistar rats (30 nmol/kg) was “None of the example compounds at 30 nmol/kg trigger a notable suppression of the calcium level”; in the assay on Wistar rats (1000 nmol/kg), “more pronounced suppression of the calcium level”.
With `CC[C@H](C)[C@H](NC(=O)[C@H](C)NC(=O)CNC(=O)[C@H](Cc1ccccc1)NC(=O)[C@H](CC(N)=O)NC(=O)[C@@H]1CCCN1C(=O)[C@H](CO)NC(=O)[C@H](CO)NC(=O)[C@H](Cc1c[nH]cn1)NC(=O)[C@H](CCCNC(=N)N)NC(=O)[C@H](CC(C)C)NC(=O)[C@H](Cc1ccccc1)NC(=O)[C@H](CC(N)=O)NC(=O)[C@H](C)NC(=O)[C@H](CC(C)C)NC(=O)[C@H](CCCNC(=N)N)NC(=O)[C@H](CCC(N)=O)NC(=O)[C@@H](NC(=O)[C@H](C)NC(=O)[C@@H]1CSSC[C@H](NC(=O)[C@@H](N)CCCCNC(=O)CC[C@H](NC(=O)CC[C@H](NC(=O)CCCCCCCCCCCCCCCCCCC(=O)O)C(=O)O)C(=O)O)C(=O)N[C@@H](CC(N)=O)C(=O)N[C@@H]([C@@H](C)O)C(=O)N[C@@H](C)C(=O)N[C@@H]([C@@H](C)O)C(=O)N1)[C@@H](C)O)C(=O)N1CCC[C@H]1C(=O)N[C@@H](CO)C(=O)N[C@@H](CO)C(=O)N[C@H](C(=O)N[C@@H](CC(N)=O)C(=O)N[C@H](C(=O)NCC(=O)N[C@@H](Cc1c[nH]cn1)C(=O)N[C@@H](CC(N)=O)C(=O)N[C@H](C(=O)N[C@@H](Cc1ccc(O)cc1)C(N)=O)[C@@H](C)O)C(C)C)[C@@H](C)O` [Example 86] (H-K([γGlu-γGlu-C20 diacid])CNTATCATQRLANFLRHSSPNFGAIPSSTNVGHNTY-NH2; disulfide 2-7 (inferred); N-terminus and C-terminus assumed), in the assay with Sprague-Dawley rats, the “food intake monitored over 48 hours versus vehicle” value was “reduces food intake in rats”. In the assay on Wistar rats (30 nmol/kg), the “Plasma calcium red (%) 0-12 h” value is 0%. In addition, the “suppression of plasma calcium level relative to vehicle” value in the assay on Wistar rats (increasing doses (all doses tested)) is on record as “None of the doses trigger a notable suppression of the calcium level”.
With `CC(C)C[C@H](NC(=O)[C@H](CCCCN)NC(=O)CNC(=O)[C@H](CC(C)C)NC(=O)[C@@H](NC(=O)[C@@H]1CSSC[C@H](N)C(=O)N[C@@H](CO)C(=O)N[C@@H](CC(N)=O)C(=O)N[C@@H](CC(C)C)C(=O)N[C@@H](CO)C(=O)N[C@@H]([C@@H](C)O)C(=O)N1)C(C)C)C(=O)N[C@@H](CO)C(=O)N[C@@H](CCC(N)=O)C(=O)N[C@@H](CCC(=O)O)C(=O)N[C@@H](CC(C)C)C(=O)N[C@@H](Cc1c[nH]cn1)C(=O)N[C@@H](CCCCN)C(=O)N[C@@H](CC(C)C)C(=O)N[C@@H](CCC(N)=O)C(=O)N[C@H](C(=O)N[C@@H](Cc1ccc(O)cc1)C(=O)N1CCC[C@H]1C(=O)N[C@@H](CCCNC(=N)N)C(=O)N[C@H](C(=O)N[C@@H](CC(N)=O)C(=O)N[C@H](C(=O)NCC(=O)N[C@@H](CO)C(=O)NCC(=O)N[C@H](C(=O)N1CCC[C@H]1C(N)=O)[C@@H](C)O)[C@@H](C)O)[C@@H](C)O)[C@@H](C)O` [salmon calcitonin, reference compound], in the assay on Sprague-Dawley rats, the “food intake monitored over 48 hours versus vehicle” value was “reduction of food intake; also recorded: reduces food intake in rats”. The “Plasma calcium red (%) 0-12 h” value with Wistar rats (3 nmol/kg) was 35%; in the assay on Wistar rats (30 nmol/kg), 39%.
